Laboratory results from article PMC11722285, “Exploring the Potential of Malvidin and Echiodinin as Probable Antileishmanial Agents Through In Silico Analysis and In Vitro Efficacy” (Molecules, 2025).
Read-outs that look alike come from different tables or passages of the source.

Experiments:
Assay type in all cases: cell-based
[1] = test system: L. amazonensis axenic amastigotes; test: In vitro antileishmanial activity, axenic amastigotes (MTT); details: for IC50: 48 h, axenic amastigotes, mean ± SD, read-out: IC50 (µM) Axenic amastigotes L. amazonensis
Protocol: (§1) L. amazonensis (IFLA/BR/1967/PH-8), L. braziliensis (MHOM/BR/1975/M2903), and L. infantum (MHOM/BR/1970/BH46) were used as parasites. Stationary promastigotes were grown at a 24 °C in complete Schneider’s medium (Sigma-Aldrich, St. Louis, MO, USA), which was composed of medium plus 20% (v/v) heat-inactivated fetal bovine serum (FBS; Sigma-Aldrich, USA) and 20 mM L-glutamine with a pH of 7.4 [139]. To obtain the axenic amastigotes, 10^9 stationary promastigotes were washed three times in sterile phosphate-buffered saline (PBS 1X and incubated in 5 mL FBS for 48 h (L. amazonensis and L. braziliensis) and 72 h (L. infantum), respectively, at 37 °C. Parasites were washed in cold PBS 1x, and their morphology was evaluated after staining using the Giemsa method in an optical microscope, as previously described.
(§2) AmpB (0 to 10.8 µM; Sigma-Aldrich, USA) was used as control. Cell viability was assessed through 3-(4.5-dimethylthiazol-2-yl)-2.5-diphenyl tetrazolium bromide (Sigma-Aldrich, USA) method. Optical density (OD) values were measured in a microplate spectrophotometer (Molecular Devices, Spectra Max Plus, San Jose, CA, USA) at 570 nm. IC50 values were calculated by sigmoidal regression of dose–response curves in Microsoft Excel software (version 10.0). Two-tailed Student’s t-tests (p < 0.05) were used to compare IC50 values between malvidin and echioidinin, assessing significant differences in inhibitory activity.

[2] = test system: L. braziliensis axenic amastigotes; test: as above
Protocol: as §1, §2

[3] = test system: L. infantum axenic amastigotes; test: as above
Protocol: as §1, §2

O+ human red blood cells = test: Hemolytic activity; details: human, 1 h
Protocol: Cytotoxicity was evaluated ex vivo in murine macrophages and human red blood cells, for which concentrations inhibiting 50% of macrophages (CC50) and red blood cells (RBC50) were determined. Briefly, murine cells (5 × 10^5) or a 5% human red blood cells suspension were incubated in the presence of malvidin (0 to 301.84 µM) or echioidinin (0 to 356.76 µM) AmpB (0 to 10.82 µM) was used as control. Cells were incubated in RPMI 1640 medium for 48 h (murine macrophages) or 1 h (red blood cells) at 37 °C in 5% CO2. Macrophage viability was assessed using the MTT method. The red blood cell suspension was centrifuged at 1000× g for 10 min at 4 °C, after which the percentage of cell lysis was evaluated spectrophotometrically at 570 nm. The hemolysis was determined by replacing the natural products with an equal volume of phosphate-buffered saline with a pH of 7.4 (PBS—negative control) or distilled water (positive control). CC50 and RBC50 values were calculated by sigmoidal regression of dose–response curves in Microsoft Excel software (version 10.0). SI was calculated as the ratio between CC50 and IC50 values.

[4] = test system: L. braziliensis stationary promastigotes; test: In vitro antileishmanial activity, stationary promastigotes (MTT)
Protocol: as §1, §2

[5] = test system: L. infantum stationary promastigotes; test: as above
Protocol: as §1, §2

[6] = test system: L. amazonensis stationary promastigotes; test: as above; details: for IC50: 48 h, stationary promastigotes, mean ± SD, read-out: IC50 (µM) Stationary Promastigotes L. amazonensis
Protocol: as §1, §2

[7] = test system: L. infantum-infected murine macrophages; test: Treatment of infected macrophages; details: 48 h
Protocol: (§3) To evaluate the efficacy of malvidin or echioidinin for treating infected macrophages, murine cells (5 × 10^5) were plated on round glass coverslips in 24-well plates in RPMI 1640 medium supplemented with 20% (v/v) FBS and 20 mM L-glutamine at a pH of 7.4 and incubated for 24 h at 37 °C in 5% CO2. Stationary promastigotes were added to the wells at a ratio of 10 parasites per macrophage, and cultures were incubated further for 48 h at 37 °C for 5% CO2. Free parasites were removed by extensive washing with RPMI 1640 medium, and infected macrophages were treated with malvidin (30.18, 60.37, and 120.74 µM), echioidinin (35.18, 70.36, and 140.72 µM), or AmpB (2.70 and 5.41 µM) for 48 h at […] in 5% CO2. After fixation with 4% paraformaldehyde, cells were washed and stained with Giemsa, and the infection percentage, the number of amastigotes per infected macrophage, and the reduction in the infection percentage were determined by counting 200 cells in triplicate, using an optical microscope.

[8] = test system: L. amazonensis-infected murine macrophages; test: Treatment of infected macrophages; details: 48 h
Protocol: as §3

[9] = test system: L. braziliensis-infected murine macrophages; test: Treatment of infected macrophages; details: 48 h
Protocol: as §3

[10] = ratio between CC50 (macrophages) and IC50

C[C@@H]1[C@H](O)[C@@H](C)/C=C/C=C/C=C/C=C/C=C/C=C/C=C/[C@H](O[C@@H]2O[C@H](C)[C@@H](O)[C@H](N)[C@@H]2O)C[C@@H]2O[C@](O)(C[C@@H](O)C[C@@H](O)[C@H](O)CC[C@@H](O)C[C@@H](O)CC(=O)O[C@H]1C)C[C@H](O)[C@H]2C(=O)O [AmpB, amphotericin B, reference compound]
IC50 ([1]; Leishmania amazonensis): 0.1 ± 0.03 µM | IC50 [1]: 0.09 ± 0.02 µM | Selectivity Index (SI) Axenic amastigotes L. amazonensis [1, 10]: 11.00 | IC50 ([2]; Leishmania braziliensis, axenic amastigotes, 48 h, mean ± SD, read-out: IC50 (µM) Axenic amastigotes L. braziliensis): 0.1 ± 0.03 µM | Selectivity Index (SI) Axenic amastigotes L. braziliensis [2, 10]: 9.80 | IC50 ([3]; Leishmania infantum, axenic amastigotes, 48 h, mean ± SD, read-out: IC50 (µM) Axenic amastigotes L. infantum): 0.08 ± 0.02 µM | Selectivity Index (SI) Axenic amastigotes L. infantum [3, 10]: 12.60 | RBC50 (O+ human red blood cells): 14.28 ± 1 µM | IC50 ([4]; Leishmania braziliensis, stationary promastigotes, 48 h, mean ± SD, read-out: IC50 (µM) Stationary Promastigotes L. braziliensis): 0.09 ± 0.03 µM | Selectivity Index (SI) Stationary Promastigotes L. braziliensis [4, 10]: 11.00 | IC50 ([5]; Leishmania infantum, stationary promastigotes, 48 h, mean ± SD, read-out: IC50 (µM) Stationary Promastigotes L. infantum): 0.06 ± 0.01 µM | Selectivity Index (SI) Stationary Promastigotes L. infantum [5, 10]: 14.70 | IC50 ([6]; Leishmania amazonensis): 0.06 ± 0.01 µM | Selectivity Index (SI) Stationary Promastigotes L. amazonensis [6, 10]: 12.60 | IC50 [6]: 0.08 ± 0.02 µM | Infection After Treatment (%) ([7]; 2.71 µM): 28.70% | Infectiveness Reduction (%) ([7]; 2.71 µM): 61.48% | Number of Amastigotes per Macrophage ([7]; 2.71 µM): 3.00 | Infection After Treatment (%) ([7]; 5.41 µM): 19.80% | Infectiveness Reduction (%) ([7]; 5.41 µM): 73.42% | Number of Amastigotes per Macrophage ([7]; 5.41 µM): 2.50 | Infection After Treatment (%) ([8]; 2.71 µM): 34.30% | Infectiveness Reduction (%) ([8]; 2.71 µM): 62.84% | Number of Amastigotes per Macrophage ([8]; 2.71 µM): 2.60 | Infection After Treatment (%) ([8]; 5.41 µM): 24.20% | Infectiveness Reduction (%) ([8]; 5.41 µM): 73.78% | Number of Amastigotes per Macrophage ([8]; 5.41 µM): 2.80 | Infection After Treatment (%) ([9]; 2.71 µM): 24.40% | Infectiveness Reduction (%) ([9]; 2.71 µM): 64.48% | Number of Amastigotes per Macrophage ([9]; 2.71 µM): 2.60 | Infection After Treatment (%) ([9]; 5.41 µM): 16.50% | Infectiveness Reduction (%) ([9]; 5.41 µM): 75.98% | Number of Amastigotes per Macrophage ([9]; 5.41 µM): 2.40
